What was measured:
Experiment in all cases: whole-cell patch clamp in HEK-293
Assay type in all cases: cell-based
CaV3.3 (α1I) = CaV3.3 (α1I) (Homo sapiens, UniProt Q9P0X4)
CaV3.2 (α1H) = CaV3.2 (α1H) (Homo sapiens, UniProt O95180)
CaV3.1 (α1G) = CaV3.1 (α1G) (Homo sapiens, UniProt O43497)

Chain of CaV3.3 (α1I) (Q9P0X4 whole entry): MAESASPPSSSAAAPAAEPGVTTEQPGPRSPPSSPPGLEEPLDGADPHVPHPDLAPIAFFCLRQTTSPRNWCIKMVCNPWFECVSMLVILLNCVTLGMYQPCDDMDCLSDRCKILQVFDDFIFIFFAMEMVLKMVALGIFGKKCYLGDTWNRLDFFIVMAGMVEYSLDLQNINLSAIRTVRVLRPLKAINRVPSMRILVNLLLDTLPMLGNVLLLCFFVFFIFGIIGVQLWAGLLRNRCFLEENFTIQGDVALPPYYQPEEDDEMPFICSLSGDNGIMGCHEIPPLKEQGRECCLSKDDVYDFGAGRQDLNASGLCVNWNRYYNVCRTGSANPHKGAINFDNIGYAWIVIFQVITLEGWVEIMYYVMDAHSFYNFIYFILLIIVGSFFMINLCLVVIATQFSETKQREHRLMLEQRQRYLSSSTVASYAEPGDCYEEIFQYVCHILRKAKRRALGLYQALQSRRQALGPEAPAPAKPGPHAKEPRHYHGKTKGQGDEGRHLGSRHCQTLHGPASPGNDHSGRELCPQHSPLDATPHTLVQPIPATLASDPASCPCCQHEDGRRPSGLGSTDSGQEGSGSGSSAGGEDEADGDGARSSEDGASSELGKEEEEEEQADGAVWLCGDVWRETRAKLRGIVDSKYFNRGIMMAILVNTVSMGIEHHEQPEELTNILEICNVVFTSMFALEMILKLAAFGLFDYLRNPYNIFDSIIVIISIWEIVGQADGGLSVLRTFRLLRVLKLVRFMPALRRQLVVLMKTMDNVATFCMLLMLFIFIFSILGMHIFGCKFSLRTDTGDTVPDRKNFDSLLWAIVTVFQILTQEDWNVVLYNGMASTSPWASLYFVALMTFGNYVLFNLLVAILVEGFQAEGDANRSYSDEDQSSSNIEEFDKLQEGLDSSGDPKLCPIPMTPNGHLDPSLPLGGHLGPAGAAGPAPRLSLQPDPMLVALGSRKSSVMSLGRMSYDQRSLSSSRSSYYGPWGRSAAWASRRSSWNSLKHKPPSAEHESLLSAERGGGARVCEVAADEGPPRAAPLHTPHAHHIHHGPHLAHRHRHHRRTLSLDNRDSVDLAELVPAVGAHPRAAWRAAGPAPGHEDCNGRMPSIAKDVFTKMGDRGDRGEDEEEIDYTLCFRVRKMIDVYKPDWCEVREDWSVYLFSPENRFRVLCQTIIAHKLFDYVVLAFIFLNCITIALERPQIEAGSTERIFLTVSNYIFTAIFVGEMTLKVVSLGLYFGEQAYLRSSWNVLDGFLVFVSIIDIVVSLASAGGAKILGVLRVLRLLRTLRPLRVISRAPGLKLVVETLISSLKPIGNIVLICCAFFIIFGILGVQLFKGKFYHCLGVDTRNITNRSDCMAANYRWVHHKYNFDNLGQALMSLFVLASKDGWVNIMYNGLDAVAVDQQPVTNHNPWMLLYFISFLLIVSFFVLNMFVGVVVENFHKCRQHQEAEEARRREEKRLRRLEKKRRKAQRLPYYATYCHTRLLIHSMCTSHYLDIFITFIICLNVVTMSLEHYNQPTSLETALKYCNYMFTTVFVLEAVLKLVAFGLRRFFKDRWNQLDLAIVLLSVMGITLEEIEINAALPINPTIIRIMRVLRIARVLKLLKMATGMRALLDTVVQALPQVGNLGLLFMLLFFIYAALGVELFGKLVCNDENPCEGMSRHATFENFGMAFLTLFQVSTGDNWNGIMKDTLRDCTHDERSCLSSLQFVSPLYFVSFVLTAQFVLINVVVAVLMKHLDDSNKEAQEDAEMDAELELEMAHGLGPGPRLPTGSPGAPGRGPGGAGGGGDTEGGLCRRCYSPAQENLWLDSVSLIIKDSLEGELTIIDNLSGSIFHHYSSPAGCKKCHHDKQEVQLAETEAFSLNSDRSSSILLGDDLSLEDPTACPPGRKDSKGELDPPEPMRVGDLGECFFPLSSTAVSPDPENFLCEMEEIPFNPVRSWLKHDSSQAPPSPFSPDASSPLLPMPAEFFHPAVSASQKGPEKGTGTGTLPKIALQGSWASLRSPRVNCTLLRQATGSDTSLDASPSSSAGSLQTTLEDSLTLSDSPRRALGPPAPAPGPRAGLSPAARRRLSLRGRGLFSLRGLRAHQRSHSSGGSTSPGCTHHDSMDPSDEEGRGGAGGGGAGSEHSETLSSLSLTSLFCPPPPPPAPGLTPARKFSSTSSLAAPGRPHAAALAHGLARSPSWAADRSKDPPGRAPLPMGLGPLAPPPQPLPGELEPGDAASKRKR
Chain of CaV3.2 (α1H) (O95180 whole entry): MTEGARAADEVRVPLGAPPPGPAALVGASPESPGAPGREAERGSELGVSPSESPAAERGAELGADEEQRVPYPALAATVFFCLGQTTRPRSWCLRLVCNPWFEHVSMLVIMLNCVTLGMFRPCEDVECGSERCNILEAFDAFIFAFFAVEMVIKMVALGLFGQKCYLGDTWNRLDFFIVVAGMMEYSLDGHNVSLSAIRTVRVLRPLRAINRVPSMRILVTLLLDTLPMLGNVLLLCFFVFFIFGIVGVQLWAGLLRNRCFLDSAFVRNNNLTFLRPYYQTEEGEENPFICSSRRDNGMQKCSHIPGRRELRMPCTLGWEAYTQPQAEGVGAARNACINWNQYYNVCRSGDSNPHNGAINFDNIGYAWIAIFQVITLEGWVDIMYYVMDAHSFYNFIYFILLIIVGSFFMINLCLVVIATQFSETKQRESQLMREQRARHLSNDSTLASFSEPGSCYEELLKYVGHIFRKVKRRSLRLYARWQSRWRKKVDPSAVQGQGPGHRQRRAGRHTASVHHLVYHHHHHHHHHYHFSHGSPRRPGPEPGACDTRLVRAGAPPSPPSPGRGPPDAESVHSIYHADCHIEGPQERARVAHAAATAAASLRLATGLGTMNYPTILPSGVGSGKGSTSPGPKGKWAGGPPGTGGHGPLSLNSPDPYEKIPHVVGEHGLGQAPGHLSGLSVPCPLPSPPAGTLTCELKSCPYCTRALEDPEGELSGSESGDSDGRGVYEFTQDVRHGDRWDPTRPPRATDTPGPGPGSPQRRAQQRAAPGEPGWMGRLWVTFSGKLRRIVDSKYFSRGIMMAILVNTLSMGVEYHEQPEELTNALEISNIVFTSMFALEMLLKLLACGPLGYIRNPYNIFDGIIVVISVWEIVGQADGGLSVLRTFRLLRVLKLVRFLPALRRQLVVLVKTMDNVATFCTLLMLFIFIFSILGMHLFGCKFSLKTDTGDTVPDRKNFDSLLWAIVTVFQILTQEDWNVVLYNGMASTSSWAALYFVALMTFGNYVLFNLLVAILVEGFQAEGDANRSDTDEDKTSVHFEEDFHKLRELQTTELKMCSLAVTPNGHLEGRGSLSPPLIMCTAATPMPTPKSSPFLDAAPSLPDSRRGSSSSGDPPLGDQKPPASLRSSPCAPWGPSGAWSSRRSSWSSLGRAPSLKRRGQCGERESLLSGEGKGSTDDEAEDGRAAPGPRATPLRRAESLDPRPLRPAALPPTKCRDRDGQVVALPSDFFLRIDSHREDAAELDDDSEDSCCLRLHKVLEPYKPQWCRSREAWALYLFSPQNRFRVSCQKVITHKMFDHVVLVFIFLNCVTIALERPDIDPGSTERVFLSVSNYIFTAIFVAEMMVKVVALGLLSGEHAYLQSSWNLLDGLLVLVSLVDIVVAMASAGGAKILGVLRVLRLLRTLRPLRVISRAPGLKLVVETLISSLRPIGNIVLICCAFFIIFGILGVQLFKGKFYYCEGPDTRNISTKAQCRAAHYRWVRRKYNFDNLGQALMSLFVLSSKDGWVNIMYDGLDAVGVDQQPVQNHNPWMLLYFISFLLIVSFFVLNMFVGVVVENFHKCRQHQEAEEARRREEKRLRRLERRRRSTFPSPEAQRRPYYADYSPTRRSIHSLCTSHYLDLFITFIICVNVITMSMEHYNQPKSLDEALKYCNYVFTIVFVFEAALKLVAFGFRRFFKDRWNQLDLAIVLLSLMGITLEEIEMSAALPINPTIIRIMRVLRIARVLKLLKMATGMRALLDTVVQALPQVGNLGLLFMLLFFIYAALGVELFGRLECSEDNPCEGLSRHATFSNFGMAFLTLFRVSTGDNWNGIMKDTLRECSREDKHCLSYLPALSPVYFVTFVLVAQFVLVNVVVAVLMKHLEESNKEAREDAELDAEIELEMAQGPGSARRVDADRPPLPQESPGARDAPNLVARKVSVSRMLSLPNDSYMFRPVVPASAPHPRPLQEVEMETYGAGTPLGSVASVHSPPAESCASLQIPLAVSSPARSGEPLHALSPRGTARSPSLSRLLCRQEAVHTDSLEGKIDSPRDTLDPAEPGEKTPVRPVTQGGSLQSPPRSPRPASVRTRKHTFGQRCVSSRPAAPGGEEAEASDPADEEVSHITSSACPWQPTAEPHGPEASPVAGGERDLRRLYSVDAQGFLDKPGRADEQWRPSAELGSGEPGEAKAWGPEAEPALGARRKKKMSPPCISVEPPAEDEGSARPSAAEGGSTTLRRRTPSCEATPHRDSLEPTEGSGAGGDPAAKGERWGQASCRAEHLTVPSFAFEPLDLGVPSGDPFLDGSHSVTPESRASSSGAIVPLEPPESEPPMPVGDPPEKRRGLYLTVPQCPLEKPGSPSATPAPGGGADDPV

Kd (CaV3.3 (α1I)): 137 µM | Kd (CaV3.2 (α1H)): 192 µM | Kd (CaV3.1 (α1G)): 78.4 µM
Compound: O=C(O)c1cccnc1Nc1cccc(C(F)(F)F)c1 [NA, 2-{[3-(trifluoromethyl)phenyl]amino}-pyridine-3-carboxylic acid]

Reference: PMC4146346 (Journal of cellular physiology, 2012)
